pIC50: −log10 of the molar value. Counter-ions that a name gives are not always drawn.
Target: T1, PKBα (Homo sapiens, UniProt P31749)
T1 construct: fused on or other part: His6 tag is likely on the Upstate products
Assay: PKB kinase assay (P33-labeled ATP, peptide substrate, filter plate)
Type: biochemical
Conditions: with respect to PKBα
Description: The kinase assay for evaluating PKB activity comprises active PKB enzymes, a PKB specific substrate, and P^33-labeled ATP. Two form of PKBα enzymes were used, the full length PKBα and a kinase domain of PKBα with pleckstrin domain (amino acids 1-117) deleted. Both PKB enzymes were obtained from Upstate cell signaling solutions (Cat.# 14-276 and 14-341). The PKB substrate used is a synthetic peptide (ARKRERTYSFGHHA (SEQ ID NO: 1)) as described in Obata et al., J. Biol. Chem. 275 (46), 36108-36115 (2000). The phosphorylated substrate was captured by a phosphocellulose membrane filter plate (MILLIPORE) and measured by a Wallac Microbeta liquid scintillation counter (Perkin Elmer). Table 1 provides the IC50 values obtained for each of the examples with respect to PKBα.

T1 sequence (P31749 118-472 limits assumed): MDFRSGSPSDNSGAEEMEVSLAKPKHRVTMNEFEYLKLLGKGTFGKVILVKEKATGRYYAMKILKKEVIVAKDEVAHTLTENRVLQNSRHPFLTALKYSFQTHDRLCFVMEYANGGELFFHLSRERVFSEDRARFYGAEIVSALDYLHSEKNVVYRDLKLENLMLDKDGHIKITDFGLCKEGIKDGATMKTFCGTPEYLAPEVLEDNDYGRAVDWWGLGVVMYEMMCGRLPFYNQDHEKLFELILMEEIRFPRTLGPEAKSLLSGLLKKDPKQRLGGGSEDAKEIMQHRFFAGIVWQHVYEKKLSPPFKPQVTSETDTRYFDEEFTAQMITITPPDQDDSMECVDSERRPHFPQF

SMILES	pIC50
N[C@H](CNc1nc(CO)c(-c2ccc3cnc(F)cc3c2)s1)Cc1ccc(C(F)(F)F)cc1 [Example 21, (2-((S)-2-Amino-3-(4-(trifluoromethyl)phenyl)propylamino)-5-(3-fluoroisoquinolin-6-yl)thiazol-4-yl)methanol]	> 7.30
N[C@H](CNc1ncc(-c2ccc3cnc(F)cc3c2)s1)Cc1ccc(C(F)F)cc1 [Example 42, (2S)-3-(4-(difluoromethyl)phenyl)-N-1-(5-(3-fluoro-6-isoquinolinyl)-1,3-thiazol-2-yl)-1-2-propanediamine trifluoroacetate]	> 7.30
N[C@H](CNc1ncc(-c2ccc3cnc(F)cc3c2)s1)Cc1cnc(F)c(Cl)c1 [Example 40, N—((S)-2-Amino-3-(5-chloro-6-fluoropyridin-3-yl)propyl)-5-(3-fluoroisoquinolin-6-yl)thiazol-2-amine]	6.00 to 7.30
N[C@H](CNc1ncc(-c2ccc3cnc(F)cc3c2)s1)CN1CCCC(C(F)(F)F)C1 (stereo partly drawn) [Example 30, N—((R)-2-Amino-3-((3S)-(trifluoromethyl)piperidin-1-yl)propyl)-5-(3-fluoroisoquinolin-6-yl)thiazol-2-amine]	5.00 to 6.00
COCc1nc(NCC(N)[C@@H](C)c2ccc(C(F)(F)F)cc2)sc1-c1ccc2cnc(F)cc2c1 (stereo in doubt) [Example 27, N-((2R,3S)-2-Amino-3-(4-(trifluoromethyl)phenyl)butyl)-5-(3-fluoroisoquinolin-6-yl)-4-(methoxymethyl)thiazol-2-amine]	> 7.30
COCc1nc(CC[C@@H](N)Cc2ccc(C(F)(F)F)nc2)sc1-c1ccc2cnc(F)cc2c1 [Example 49, (2R)-4-(5-(3-Fluoroisoquinolin-6-yl)-4-(methoxymethyl)thiazol-2-yl)-1-(6-(trifluoromethyl)pyridin-3-yl)butan-2-amine]	> 7.30
N[C@H](CNc1ncc(-c2ccc3cnc(F)cc3c2)s1)Cn1cnc(C(F)(F)F)c1 [Example 28, N—((R)-2-Amino-3-(4-(trifluoromethyl)-1H-imidazol-1-yl)propyl)-5-(3-fluoroisoquinolin-6-yl)thiazol-2-amine]	6.00 to 7.30
N[C@H](CNc1ncc(-c2ccc3cnc(F)cc3c2)s1)Cc1ccc(C(F)(F)F)nc1Cl [Example 31, N—((S)-2-Amino-3-(2-chloro-6-(trifluoromethyl)pyridin-3-yl)propyl)-5-(3-fluoroisoquinolin-6-yl)thiazol-2-amine]	> 7.30
N[C@H](CNc1nc(CO)c(-c2ccc3cnc(F)cc3c2)s1)Cc1ccc(C(F)(F)F)nc1 [Example 16, (2-((S)-2-Amino-3-(6-(trifluoromethyl)pyridin-3-yl)propylamino)-5-(3-fluoroisoquinolin-6-yl)thiazol-4-yl)methanol]	> 7.30
NC(CCc1nc(CO)c(-c2ccc3cnc(F)cc3c2)s1)Cc1ccc(C(F)(F)F)cc1 (racemic) [Example 51, (±)-(2-(3-Amino-4-(4-(trifluoromethyl)phenyl)butyl)-5-(3-fluoroisoquinolin-6-yl)thiazol-4-yl)methanol]	6.00 to 7.30
C[C@@H](c1ccc(C(F)(F)F)nc1)[C@H](N)CNc1nc(CO)c(-c2ccc3cnc(F)cc3c2)s1 [Example 12, (2-((2S,3S)-2-Amino-3-(6-(trifluoromethyl)pyridin-3-yl)butylamino)-5-(3-fluoroisoquinolin-6-yl)thiazol-4-yl)methanol]	> 7.30
CNC(=O)c1nc(NC[C@@H](N)Cc2ccc(C(F)(F)F)nc2)sc1-c1ccc2cnc(F)cc2c1 [Example 17]	6.00 to 7.30
NC(CNc1ncc(-c2ccc3cnc(F)cc3c2)s1)Cn1ccc(C(F)(F)F)n1 (stereo in doubt) [Example 29, N—((S)-2-Amino-3-(3-(trifluoromethyl)-1H-pyrazol-1-yl)propyl)-5-(3-fluoroisoquinolin-6-yl)thiazol-2-amine]	6.00 to 7.30
COC(=O)c1nc(NC[C@@H](N)[C@@H](C)c2ccc(C(F)(F)F)nc2)sc1-c1ccc2cnc(F)cc2c1 [Example 11, Methyl 2-((2S,3S)-2-amino-3-(6-(trifluoromethyl)pyridin-3-yl)butylamino)-5-(3-fluoroisoquinolin-6-yl)thiazole-4-carboxylate]	6.00 to 7.30
CS(=O)(=O)C[C@@H](c1ccc(C(F)(F)F)cc1)[C@H](N)CNc1ncc(-c2ccc3cnc(F)cc3c2)s1 [Example 34, N-((2S,3S)-2-Amino-4-(methylsulfonyl)-3-(4-(trifluoromethyl)phenyl)butyl)-5-(3-fluoroisoquinolin-6-yl)thiazol-2-amine]	6.00 to 7.30
CC(C)(C)OC(=O)N[C@@H](Cc1ccc(C(F)(F)F)nc1)CN(C(=O)OC(C)(C)C)c1ncc(-c2ccc3cnc(F)cc3c2)s1 [Example 1, tert-Butyl ((2S)-2-((tert-butoxycarbonyl)amino)-3-(6-(trifluoromethyl)-3-pyridinyl)propyl)(5-(3-fluoro-6-isoquinolinyl)-1,3-thiazol-2-yl)carbamate]	5.00 to 6.00
CC#Cc1nc(NC[C@@H](N)Cc2ccc(C(F)(F)F)nc2)sc1-c1ccc2cnc(F)cc2c1 [Example 35, N—((S)-2-Amino-3-(6-(trifluoromethyl)pyridin-3-yl)propyl)-5-(3-fluoroisoquinolin-6-yl)-4-(prop-1-ynyl)thiazol-2-amine]	> 7.30
COC(=O)c1ccc(C[C@H](N)CNc2ncc(-c3ccc4cnc(F)cc4c3)s2)cc1 [Example 45]	6.00 to 7.30

From patent publication US20110263647A1 (AMGEN INC., priority 2009, published 2011)
